Results taken from the RepoRT retention time repository (doi:10.1021/acs.analchem.2c02893).

What was measured:
Settings in all cases: stereoisomer not certain
[1] = RP, Thermo Scientific Acclaim RSLC 120 C18, 100 × 2.1 mm, 2.2 µm, 30 °C, 0.2 mL/min, estimated dead time 1.1 min; A: water + 0.1% formic acid, pH 2.6; B: methanol + 0.1% formic acid, pH 2.6; gradient (min/%B) 0/10 4/50 17/95 25/95 25.1/10 30/10
[2] = RP, Waters ACQUITY UPLC BEH C18, 100 × 2.1 mm, 1.7 µm, 35 °C, 0.35 mL/min, estimated dead time 0.63 min; A: water + 0.01% formic acid + 5 mM ammonium formate, pH 3.71; B: acetonitrile + 0.01% formic acid, pH 3.71; gradient (min/%B) 0/5 0.5/5 16/95 16.1/99 19/99 19.1/5 21/5
[3] = RP, Thermo Scientific Acclaim RSLC 120 C18, 100 × 2.1 mm, 2.2 µm, 30 °C, 0.2 mL/min, estimated dead time 1.1 min; A: 90% water + 10% methanol + 0.01% formic acid + 5 mM ammonium formate, pH 3.61; B: methanol + 0.01% formic acid + 5 mM ammonium formate, pH 3.61; gradient (min/%B) 0/1 1/1 2/39 13/99.9 15/99.9 15.1/1 20.1/1
[4] = RP, Waters ACQUITY UPLC BEH C18, 100 × 2.1 mm, 1.7 µm, 30 °C, 0.35 mL/min, estimated dead time 0.63 min; A: water + 0.01% formic acid + 5 mM ammonium formate, pH 3.71; B: acetonitrile + 0.01% formic acid, pH 3.71; gradient (min/%B) 0/10 3/10 22/100 30/100 30.1/10 40/10

| Structure (SMILES) | LC retention time [1] [min] | LC retention time [2] [min] | LC retention time [3] [min] | LC retention time [4] [min] |
| --- | --- | --- | --- | --- |
| O=P(Oc1ccccc1)(Oc1ccccc1)Oc1ccccc1 [Phosphate-Triphenyl] | 14.3 | 11.8 | 11 | 15.5 |
| CCOP(=O)(OCC)OCC [Phosphate-triethyl] | 6.94 | 5.48 | 6.16 | 7.31 |
| CCOC(=O)c1ccccc1C(=O)OCC [Phthalate-Diethyl] | 10.2 | 9.21 | 8.5 | 12.2 |
| COC(=O)c1ccccc1C(=O)OC [Phthalate-Dimethyl] | 7.52 | 7.03 | 6.63 | 9.38 |
| CCC(C)OC(=O)N1CCCCC1CCO (stereo unspecified) [Picaridin (Icaridin)] | 10.7 | 8.16 | 8.83 | 10.8 |
| COC1C=COC2(C)Oc3c(C)c(O)c4c(O)c(c5c(nc6cc(C)ccn65)c4c3C2=O)NC(=O)C(C)=CC=CC(C)C(O)C(C)C(O)C(C)C(OC(C)=O)C1C (stereo unspecified) [Rifaximin] | 12.5 | 9.87 | 10.1 | 13 |
| CC(N)C12CC3CC(CC(C3)C1)C2 (stereo unspecified) [Rimantadin] | 6.34 | 5.86 | 6.71 | 7.89 |
| CCN(C)C(=O)Oc1cccc(C(C)N(C)C)c1 (stereo unspecified) [Rivastigmine] | 4.86 | 4.78 | 4.74 | 6.53 |
| CCCCCc1cc(O)c2c(c1)OC(C)(C)C1CCC(C)=CC21 (stereo unspecified) [THC] | 18.7 | 15.1 | 14 | 19.6 |
| Cn1cnc2c1c(=O)[nH]c(=O)n2C [Theobromine] | 3.37 | 1.65 | 3.28 | 1.23 |
| Cn1c(=O)c2[nH]cnc2n(C)c1=O [Theophylline] | 4.14 | 2.31 | 3.93 | 1.66 |
| CN(C)CC1CCCCC1(O)c1cccc(O)c1 (stereo unspecified) [Tramadol-O-Desmethyl] | 3.86 | 3.48 | 4.06 | 3.56 |
| COc1cccc(C2(O)CCCCC2CN(C)C)c1 (stereo unspecified) [Tramadol] | 4.86 | 4.79 | 4.88 | 6.56 |
| CCC1OC(=O)CC(O)C(C)C(OC2OC(C)C(OC3CC(C)(O)C(O)C(C)O3)C(N(C)C)C2O)C(CC=O)CC(C)C(=O)C=CC(C)=CC1COC1OC(C)C(O)C(OC)C1OC (stereo unspecified) [Tylosin] | 7.75 | 7.42 | 7.88 | 10.1 |
| C=CC(N)CCC(=O)O (stereo unspecified) [Vigabatrin] | 1.34 | 0.83 | 1.38 | 0.81 |
| N#CC1CCCN1C(=O)CNC12CC3CC(CC(O)(C3)C1)C2 (stereo unspecified) [Vildagliptin] | 2.81 | 2.68 | 3.26 | 1.89 |

Continued, values first:

| LC retention time [1] [min] | LC retention time [2] [min] | LC retention time [3] [min] | LC retention time [4] [min] | Structure (SMILES) |
| --- | --- | --- | --- | --- |
| 3.52 | 2 | 3.48 | 1.59 | CC(=O)Nc1ccc(O)cc1 [Paracetamol] |
| 6.82 | 5.58 | 5.93 | 7.53 | CCOc1ccc(NC(C)=O)cc1 [Phenacetin] |
| 9.15 | 8.66 | 7.79 | 11.5 | NC(=O)c1ccccc1Oc1ccccc1 [Phenoxybenzamide] |
| 3.69 | 3.7 | 3.89 | 4.14 | CC(C)NCC(O)COc1cccc2[nH]ccc12 (stereo unspecified) [Pindolol] |
| 6.27 | 6.49 | 6.59 | 8.91 | CC(C)NCC(O)COc1cccc2ccccc12 (stereo unspecified) [Propranolol] |
| 5.06 | 4.03 | 4.59 | 5.03 | CC(=O)Nc1ccc(S(=O)(=O)Nc2nc(C)cc(C)n2)cc1 [Sulfamethazine-N4-Acetyl] |
| 11.4 | 10.1 | 9.25 | 13.4 | N#CSCSc1nc2ccccc2s1 [TCMTB] |
| 3.86 | 3.78 | 4.06 | 4.48 | COc1cc(Cc2cnc(N)nc2N)cc(OC)c1OC [Trimethoprim] |
